According to US10159678B2, “Methods to decrease susceptibility to asthmatic bronchoconstriction” (Cornell University, priority 2012, dated 2018):

Key:
[1] = system: human bronchial rings; test: Myograph contractile response of human bronchial rings in myriocin-containing bath; conditions: 90 min in myriocin-containing bath solution (10 μM), then methacholine; FIG. 3E
Method: Human bronchial tissues were obtained from patients (n=15) undergoing surgery for lung cancer. The study was approved by the IRB at Weill Cornell Medical College. Within 30 min following resection, segments of bronchi with an inner diameter of 3-5 mm were taken from areas as far removed from the malignancy as possible. Bronchi were placed in oxygenated KH and following removal of adhering fat and connective tissues four to eight rings of the same bronchus were prepared. Each set of bronchial rings was suspended under an initial tension of 300-350 mg in KH solution containing 0.01% BSA, bubbled with 95% O2 and 5% CO2 at 37° C. and then washed every 15 min for 1 h. K^+ solution (80 mM) was then used to achieve maximum contraction and myriocin (10 μM) or solvent was added 30 min after washout of the K^+ solution. Methacholine (0.01-1 μM) was added after 90 minutes. Experiments were conducted on parallel groups of four rings at a time. Contractile responses were measured and analyzed as for the murine rings.

[2] = system: ORMDL1, ORMDL2 and ORMDL3 mRNA; test: ORMDL1, 2 and 3 mRNA expression in lung tissue (RealTime RT-PCR); format: in vivo, mice; conditions: 20 μg myriocin; FIG. 2H
Method: RNA was extracted from lungs using TRIzol (Invitrogen). Following reverse transcription of 3 μg RNA, ORMDL1, 2 and 3 mRNAs were amplified using the following primers and probes (Roche Applied Science): RNA levels were quantified using the ΔΔCt method and normalized to expression of murine ribosomal 18s (4310893E, Applied Biosystems). To assess if ORMDL expression was altered with decreased activity of SPT, mRNA expression of ORMDL1, 2 and 3 in lung tissue was analyzed following myriocin treatment and in the Sptlc2^+/− mice. Expression of ORMDL1, 2 or 3 was not affected by myriocin (FIG. 2H) or by genetic SPT deficiency (FIG. 2I).

[3] = system: Muc5ac; test: Mucus production (PAS stain, Muc5ac mRNA) after myriocin; format: in vivo; conditions: myriocin-treated mice
Source text: Lung sections were stained with periodic acid-Schiff stain (PAS) and analyzed by light microscopy. Expression of MUC5ac (Mm01276735) was quantified by TaqMan RealTime RT-PCR as described above.

[4] = system: BALB/c mice; test: Lung mechanics and airway reactivity to inhaled methacholine after intranasal myriocin; format: in vivo; conditions: 3 h after intranasal myriocin (2 or 20 μg)
Method: Animal studies described herein were conducted under protocols approved by the Institutional Animal Care and Use Committee of Weill Cornell Medical College. Female BALB/c mice, obtained from Taconic Farms (Tarrytown, N.Y.). Animals were housed under specific pathogen-free conditions and used at 6 to 8 weeks of age. Myriocin (Enzo Life Sciences, Plymouth Meeting, Pa.) was freshly prepared from a 10 mM stock solution to a 1 mM or 100 μM solution in 0.9% saline and 0.05% fatty acid free bovine serum albumin and 50 μl were administered intranasally. Control animals received the vehicle solution (1% DMSO in 0.9% saline, 0.5% BSA) or were naïve. […]
Mice were anaesthetized with pentobarbital (100 mg/kg; American Pharmaceutical Partners, Los Angeles, Calif.), tracheostomized and mechanically ventilated at a rate of 150 breaths/min, a tidal volume of 10 ml/kg and positive end-expiratory pressure of 2-3 cm H2O using a computer-controlled animal ventilator (Sireq, Montreal, Canada). […] Rn and G were also assessed following increasing doses of methacholine (3.125, 12.5 and 50 mg/ml).
Experiments were then performed to assess if administration of myriocin directly to the respiratory tract affects pulmonary function. […] Airway resistance (Rn) in response to increasing doses of inhaled methacholine was determined 3 h after myriocin administration. […]

[5] = system: TRPM7; test: Lung magnesium homeostasis (TRPM6/TRPM7 mRNA, total lung magnesium) after myriocin; format: in vivo, mice
Source text: It is proportional to the magnesium concentration.

[6] = system: lung inflammation; test: Assessment of inflammation (BAL cells, lung histology, cytokine mRNA) after myriocin; format: in vivo, mice
Method: BAL was collected by intratracheal instillations of PBS (2×0.5 ml). Cell differentials were determined by Giemsa stain on cytospin preparations. Cell viability was determined by trypan blue exclusion. Expression of TNF-α, IL-6 and IL-1β in the lung was quantified by TaqMan RealTime RT-PCR. RNA was extracted using TRIzol (Invitrogen). […] RNA levels were quantified using the ΔΔCt method and normalized to expression of murine ribosomal 18s (4310893E, Applied Biosystems). For lung histology, lungs were inflated with 4% paraformaldehyde at 25 cm H2O and 5 μm paraffin sections were stained with hematoxylin and eosin (H&E).

[7] = system: isolated bronchial rings; test: MgSO4-induced relaxation of methacholine-stimulated bronchial rings from myriocin-treated mice; conditions: rings from mice given intranasal myriocin (20 μg), methacholine then MgSO4 (15 mM); FIG. 5C
Method: The effect of Mg^2+ supplementation on methacholine-induced contraction of bronchial rings was analyzed by adding MgSO4 (15 mM) to the myograph bath solution following stimulation with methacholine (10 μM).

CCCCCCC(=O)CCCCCC/C=C/C[C@@H](O)[C@H](O)[C@@](N)(CO)C(=O)O [myriocin]
contractile force of human bronchial rings [1]: increased contractile force | Expression of ORMDL1, 2 or 3 in lung tissue [2]: not affected | mucus-producing cells on PAS-stained lung sections [3]: No differences | Expression of Muc5ac in the lungs ([3]; FIG. 4K): unchanged | airway reactivity (airway resistance Rn in response to inhaled methacholine) ([4]; FIG. 3A): increased | Baseline lung mechanical properties, such as static compliance ([4]; FIG. 3B): not altered | expression of TRPM6 ([5]; data not shown): not altered | expression of TRPM7 in the lungs ([5]; mice that had received myriocin, FIG. 5A): increased | lung magnesium levels ([5]; myriocin-treated (20 μg) mice, FIG. 5B): reduced | expression of IL-6 in the lungs ([6]; myriocin (20 μg) vs controls, FIG. 4H): No increases | expression of IL-1β in the lungs ([6]; myriocin (20 μg) vs controls, FIG. 4I): No increases | TNF-α expression in the lungs ([6]; myriocin (20 μg) vs controls, FIG. 4J): less | number of neutrophils in the BAL ([6]; myriocin-treated (20 μg) animals, FIG. 4B): small increase | inflammatory changes in lung sections (H&E) ([6]; myriocin-treated (20 μg) mice): No inflammatory changes | magnesium-induced relaxation of bronchial rings [7]: impaired
